Measured values: PMC6273037, “Synthesis, Structure and Cytotoxic Activity of Mono- and Dialkoxy Derivatives of 5,8-Quinolinedione” (Molecules, 2016)
Like-named read-outs stand apart in the source and are kept apart here.

How the values were obtained:
[1] = test system: MDA-MB-231 (human adenocarcinoma, breast cancer); test: WST-1 antiproliferative assay, breast cancer MDA-MB-231; type: cell-based; conditions: for IC50: WST-1 test, incubation time 72 h, read-out: Human Cell Line/IC50 ± SD MDA-MB-231; for selectivity index (SI): breast cancer (MDA-MB-231) cell line
Description: (§1) As a reference, the cytotoxic agent cisplatin was applied.
(§2) The synthesized compounds were tested against tumor cells SNB-19 (human glioblastoma, DSMZ-German Collection of Microorganisms and Cell Cultures, Braunschweig, Germany), MDA-MB-231 (human adenocarcinoma, breast cancer; ATCC), C-32 (human melanoma; ATCC) and nontumor cells HFF-1 (normal human fibroblasts derived from foreskin, ATCC). The cultured cells were kept at 37 °C and in 5% CO2. The cells were seeded (10^3 cells/well/[…] DMEM supplemented with FBS (Fetal Bovine Serum, Lonza) to a final concentration of 10% and streptomycin 10 mg/mL and penicillin 1000 IU/mL (Sigma), using 96-well plates (Corning).
(§3) The antiproliferative effect of the synthesized compounds was determined using the Cell Proliferation Reagent WST-1 assay (Roche Diagnostics, Mannheim, Germany). […] After an exposure to the tested compounds at concentration varying in the range 0.4–400 nM/mL, the cell viability was quantified by a cell proliferation assay. […] The cytotoxic activity of the tested compound was compared to the cisplatin (positive control). The experiments were repeated in triplicate for each concentration of the tested compound. The initial concentration of the tested compounds was 1 mg/mL DMSO. […] Calculations of the IC50 values were performed using the GraphPad Prism 6 (GraphPad Software, San Diego, CA, USA).

[2] = test system: SNB-19 (human glioblastoma); test: WST-1 antiproliferative assay, glioblastoma SNB-19; type: cell-based; conditions: WST-1 test, incubation time 72 h, read-out: Human Cell Line/IC50 ± SD SNB-19
Description: as §1, §2, §3

C-32 (human melanoma) = test: WST-1 antiproliferative assay, melanoma C-32; type: cell-based; conditions: WST-1 test, incubation time 72 h, read-out: Human Cell Line/IC50 ± SD C-32
Description: as §1, §2, §3

[3] = test system: HFF-1 (normal human fibroblasts); test: WST-1 antiproliferative assay, normal fibroblasts HFF-1; type: cell-based; conditions: WST-1 test, incubation time 72 h, Neg = Negative in the concentration used; for IC50: read-out: Human Cell Line/IC50 ± SD HFF-1
Description: as §1, §2, §3

IC50 ([1]; Homo sapiens, MDA-MB-231) | IC50 ([2]; Homo sapiens, SNB-19) | IC50 (C-32 (human melanoma); Homo sapiens) | melting point | Compound | IC50 [1] | IC50 [2] | IC50 (C-32 (human melanoma)) | IC50 [3] | selectivity index (SI) [1] | IC50 ([3]; Homo sapiens, HFF-1) | Human Cell Line/IC50 ± SD HFF-1 [3]
 |  |  |  | 6-Chloro-7-(1-methylbenzyloxy)-5,8-quinolinedione [Compound 9] | 271 ± 9.8 µM | 2.3 ± 0.5 µM | 0.81 ± 0.01 µM | 2 ± 0.3 µM |  |  | 
1.5 ± 0.2 µM | 42.2 ± 0.1 µM | 19.2 ± 2.1 µM | 161 to 163 °C | COC1=C(Cl)C(=O)c2cccnc2C1=O [Compound 2, 6-Chloro-7-methoxy-5,8-quinolinedione] |  |  |  |  | 18.4 | 27.6 ± 2.1 µM | 
24 ± 2.8 µM | 10.3 ± 2.4 µM | 30.7 ± 1.1 µM | 112 to 114 °C | CCOC1=C(Cl)C(=O)c2cccnc2C1=O [Compound 3, 6-Chloro-7-ethoxy-5,8-quinolinedione] |  |  |  |  |  | 1.3 ± 0.5 µM | 
22.4 ± 2.7 µM | 0.36 ± 0.03 µM | 0.2 ± 0.01 µM | 121 to 122 °C | CCCOC1=C(Cl)C(=O)c2cccnc2C1=O [Compound 4, 6-Chloro-7-propoxy-5,8-quinolinedione] |  |  |  |  |  |  | Neg
17.2 ± 2.8 µM | 0.3 ± 0.01 µM | 0.28 ± 0.09 µM | 89 to 90 °C | C=CCOC1=C(Cl)C(=O)c2cccnc2C1=O [Compound 5, 6-Chloro-7-(2-propenoxy)-5,8-quinolinedione] |  |  |  |  |  |  | Neg
17 ± 3 µM | 18.3 ± 1.4 µM | 22.8 ± 2.5 µM | 114 to 116 °C | O=C1C(Cl)=C(OCCCl)C(=O)c2ncccc21 [Compound 6, 6-Chloro-7-(2-chloroethoxy)-5,8-quinolinedione] |  |  |  |  |  | 15.8 ± 1.2 µM | 
164 ± 3.9 µM | 58.3 ± 2.8 µM | 119 ± 4.3 µM | 177 to 179 °C | N#CCCOC1=C(Cl)C(=O)c2cccnc2C1=O [Compound 7, 6-Chloro-7-(2-cyanoethoxy)-5,8-quinolinedione] |  |  |  |  |  | 2.5 ± 0.4 µM | 
3.5 ± 0.3 µM | 1.8 ± 0.1 µM | 1.4 ± 0.1 µM | 123 to 124 °C | O=C1C(Cl)=C(OC2CCCCC2)C(=O)c2ncccc21 [Compound 8, 6-Chloro-7-cyclohexyloxy-5,8-quinolinedione] |  |  |  |  |  | 13.9 ± 3 µM | 
 |  |  | 132 to 133 °C | COC1=C(OC)C(=O)c2ncccc2C1=O [Compound 10, 6,7-Dimethoxy-5,8-quinolinedione] |  |  |  |  |  |  | 
18.6 ± 2 µM | 2.1 ± 0.1 µM | 17.6 ± 1.6 µM | 69 to 70 °C | CCOC1=C(OCC)C(=O)c2ncccc2C1=O [Compound 11, 6,7-Diethoxy-5,8-quinolinedione] |  |  |  |  |  |  | Neg
3 ± 0.3 µM | 0.7 ± 0.02 µM | 1.1 ± 0.1 µM | 133 to 135 °C | CCCOC1=C(OCCC)C(=O)c2ncccc2C1=O [Compound 12, 6,7-Dipropoxy-5,8-quinolinedione] |  |  |  |  |  |  | Neg
12.6 ± 2.7 µM | 0.2 ± 0.01 µM | 1.5 ± 0.01 µM | 135 to 136 °C | C=CCOC1=C(OCC=C)C(=O)c2ncccc2C1=O [Compound 13, 6,7-di(2-Propenyloxy)-5,8-quinolinedione] |  |  |  |  |  |  | Neg
10.9 ± 1.4 µM | 3.5 ± 0.3 µM | 12.1 ± 0.2 µM | 189 to 191 °C | O=C1C(OCCCl)=C(OCCCl)C(=O)c2ncccc21 [Compound 14, 6,7-di(2-Chloroethoxy)-5,8-quinolinedione] |  |  |  |  |  | 1.9 ± 0.2 µM | 
2.7 ± 0.1 µM | 14.9 ± 0.7 µM | 10.9 ± 1.3 µM | 110 to 111 °C | O=C1C(OCC(F)(F)F)=C(OCC(F)(F)F)C(=O)c2ncccc21 [Compound 15, 6,7-di(2,2,2-Trifluoroethoxy)-5,8-quinolinedione] |  |  |  |  | 4.6 | 12.4 ± 1.2 µM | 
111 ± 3.7 µM | 204 ± 14.3 µM | 134 ± 10.7 µM | 45 to 47 °C | N#CCCOC1=C(OCCC#N)C(=O)c2ncccc2C1=O [Compound 16, 6,7-di(2-Cyanoethoxy)-5,8-quinolinedione] |  |  |  |  |  | 18.2 ± 2.6 µM | 
13.8 ± 0.1 µM | 1.7 ± 0.3 µM | 1.4 ± 0.1 µM |  | O=C1C(OC2CCCCC2)=C(OC2CCCCC2)C(=O)c2ncccc21 [Compound 17, 6,7-Dicyclohexloxy-5,8-quinolinedione] |  |  |  |  |  |  | Neg
 |  |  |  | N.N.[Cl][Pt][Cl] [cisplatin, reference compound] | 25.5 ± 0.2 µM | 18.9 ± 0.4 µM | 16.4 ± 1.2 µM | 9.1 ± 1.8 µM |  |  | 
